Laboratory results from ChEMBL document CHEMBL1127394, “Inhibition of topoisomerase II catalytic activity by pyridoacridine alkaloids from a Cystodytes sp. ascidian: a mechanism for the apparent intercalator-induced inhibition of topoisomerase II” (J Med Chem, 1994).

Tests used:
[1] = Differential cytotoxicity was determined from the ratio between BR1(IC50) and xrs-6 (IC50); format: functional
[2] = Tested for the cytotoxicity against the repair deficient xrs-6 chinese hamster ovary cell line; format: functional, cell-based; details: Cricetulus griseus
[3] = Concentration required to reduce ethidium bromide fluorescence to 50% of control in presence of calf thymus DNA
[4] = test system: HCT-116; assay: Tested for the cytotoxicity to inhibit replication assay against the human colon tumor cell line HCT116; format: functional, cell-based
[5] = biological target: DNA topoisomerase II (Homo sapiens) (UniProt P11388+Q02880); assay: Effect of dose dependent inhibition of TOPO II-catalyzed kDNA decatenation in vitro; details: Crithidia fasciculata

IC90 [5]	SMILES	Ratio [1]	IC50 [2]	Concentration for 50% ethidium displacement (C50) [3]	IC50 [4]
–	O=C1c2c(O)ccc(O)c2C(=O)c2c(NCCNCCO)ccc(NCCNCCO)c21 [MITOXANTRONE]	9	0.001 µM	–	–
–	c1ccc2c(c1)nc1c3nc4ccccc4c4ccnc(c5nccc2c51)c43 [EILATIN]	–	–	> 100 µM	5.3 µM
–	CC(=O)NCCc1c2c(c3nccc4c3c1Nc1ccccc1-4)NC(=O)CS2 [SHERMILAMINE B]	1	14.9 µM	> 100 µM	13.8 µM
–	CC(C)=CC(=O)NCCc1c2c3c(ccnc3c3ncsc13)-c1ccccc1N2	1	80 µM	> 100 µM	8.3 µM
–	CC(C)=CC(=O)NCCc1c2c(c3nccc4c3c1Nc1ccccc1-4)NC(=O)CS2	1	8.1 µM	> 100 µM	16.3 µM
68 µM	COc1cc([C@@H]2c3cc4c(cc3[C@@H](O[C@@H]3O[C@@H]5CO[C@@H](C)O[C@H]5[C@H](O)[C@H]3O)[C@H]3COC(=O)[C@H]23)OCO4)cc(OC)c1O [ETOPOSIDE]	7	0.14 µM	–	2.5 µM
8.4 µM	CC(=O)NCCC1=CC(=O)c2nccc3c2c1nc1ccccc13	1	136 µM	54 µM	1.6 µM
–	CC(=O)NCCc1c2c3c(ccnc3c3ncsc13)-c1ccccc1N2 [KUANONIAMINE D]	2	88.9 µM	62 µM	7.8 µM
9.2 µM	CSC1=C(CCNC(C)=O)c2nc3ccccc3c3ccnc(c23)C1=O [DIPLAMINE]	1	71.2 µM	21 µM	< 1.4 µM
33 µM	COc1cc(NS(C)(=O)=O)ccc1Nc1c2ccccc2nc2ccccc12 [AMSACRINE]	4	0.24 µM	–	6.3 µM
